Measurements: patent publication US20040266696A1, “Angiogenesis drugs” (priority 2001, published 2004)
Square brackets hold non-standard residues; d marks the D form. Ends that are not written are not given here.

What was measured:
mouse = test: Angiogenesis action in vivo examined by DAS assay (microcell embedded in the back of mouse); conditions: for Angiogenesis Magnitude (number of newly formed spiral blood vessels): peptide 10 μg/ml in DMEM injected into microcell in back of mouse, observed five days later; for angiogenic activity / angiogenesis action (summary in words): DAS assay in mice; for formation of capillary / spiral blood vessels in tissue contacting the microcell (observation): peptide 10 μg/ml in DMEM; for formation of capillary / spiral blood vessels in tissue contacting the microcell (observation) / angiogenesis magnitude: microcell in back of mouse, five days; for angiogenesis magnitude: peptide-bound gelatin collagen I mixture solution 10 μg/ml
Method: A solution containing the peptide at a concentration of 10 μg/ml in DMEM (Dulbecco's modified Eagle medium) used as a cell culture medium was prepared.
The magnitude indicates the number of newly formed spiral blood vessels, and M0 means that the number is 0, M1 means 1 to 10, M2 means 11 to 20, M3 means 21 to 30, M4 means 31 to 40, M5 means 41 to 50 and M6 means 51 or more. Thus, the larger the magnitude M, the higher the angiogenic activity.
The AGP conjugate (prepared in Example 10) having a concentration of 100 μg/ml was dissolved in collagen I at a ratio of 1:10 to obtain a peptide-bound gelatin collagen mixture solution having a concentration of 10 μg/ml.

[1] = system: transformed rat lung endothelial cells (TRLECs); test: Angiogenic action in three-dimensionally cultured vascular endothelial tissue (tube formation); type: cell-based
Method: Rat vascular endothelial cells were three-dimensionally cultured in the presence of AGP synthesized in Example 1. As the cells, transformed rat lung endothelial cells (TRLECs) were used. TRLECs were placed in a collagen I layer mixed with the peptide solution, which contained 10 μg/ml of AGP, and cultured in a carbon dioxide gas incubator for 14 days. Control experiments were carried out in the absence of a factor. And positive control experiments were performed in the presence of VEGF, which is known as a potent angiogenesis factor.
No tubes were detected in the control at all. […] It was observed that a plurality of microvilli were found on the inner surfaces of the tubes. […] Tight junction formation was observed where the endothelial cells were firmly bound. These observations indicate that the endothelial cells acquired polarity and formed tubes. The polarity means that a cell develops regions having different functions such as head and tail. No polarity is given to the endothelial cells when the endothelial cells are cultured in a usual way, and so no tubes are formed.
Rat vascular endothelial cells were three-dimensionally cultured in the presence of AGP-bound gelatin synthesized in Example 10. As the cells, transformed rat lung endothelial cells (TRLECs) were used. Peptide AGP-bound gelatin (conjugate) and collagen type I were mixed at a ratio of 1:10, and TRLECs were placed in a layer containing the conjugate-collagen mixture solution, having a final concentration of 10 μg (microgram/ml) and cultured in a carbon dioxide gas incubator for 14 days. Control experiments were carried out in the absence of a factor, and in the presence of VEGF known as an angiogenesis factor.
No tube formations were detected in the control at all. […] It was observed that a plurality of microvilli were formed on the inner surfaces of the tubes. […] Tight junction formation was observed where the endothelial cells were firmly bound. These observations indicate that the endothelial cells acquired polarity and formed tubes.

[2] = TRLECs in collagen I layer, 10 μg/ml of AGP, cultured 14 days, microscope

| Substance | Angiogenesis Magnitude (number of newly formed spiral blood vessels) (mouse) | also measured |
| --- | --- | --- |
| GLR (Oligopeptide not having angiogenic activity) [compound 7] | M0 (M0 means that the number is 0) | – |
| AGP4: AGP heptapeptide wherein the fourth amino acid tyrosine was substituted by alanine (SVVAGLR; Oligopeptide not having angiogenic activity) | M0 (M0 means that the number is 0) | angiogenic activity / angiogenesis action (summary in words) (mouse): angiogenesis action was lost; formation of capillary / spiral blood vessels in tissue contacting the microcell (observation) (mouse): not observed at all |
| VYGLR (Oligopeptide not having angiogenic activity) [compound 5] | M0 (M0 means that the number is 0) | – |
| SVV (Oligopeptide not having angiogenic activity) [compound 4] | M0 (M0 means that the number is 0) | – |
| SVVY (Oligopeptide having angiogenic activity) [Example 21] | M1 (M1 means 1 to 10) | – |
| SVVWGLR (Oligopeptide having angiogenic activity) [Example 19] | M3 (M3 means 21 to 30) | – |
| VVYGLR (Oligopeptide having angiogenic activity) [Example 14] | M5 (M5 means 41 to 50) | – |
| VEGF | M3 (M3 means 21 to 30) | angiogenesis magnitude (mouse): M3 (M3 means 21 to 30); tube-like structure formation by endothelial cells [1, 2]: arranged in the tube-like structure; tube-like structure formation by endothelial cells ([1]; TRLECs in conjugate-collagen type I mixture (1:10), final concentration 10 μg/ml, 14 days): arranged in the tube-like structure |
| SVVYGLRG (Oligopeptide having angiogenic activity) [Example 15] | – | angiogenic activity / angiogenesis action (summary in words) (mouse): high angiogenic activities |
| SVVFGLR (Oligopeptide having angiogenic activity) [Example 12] | M6 (M6 means 51 or more) | angiogenic activity / angiogenesis action (summary in words) (mouse; listed as SEQ ID NO: 9): especially high angiogenic activity; angiogenic activity / angiogenesis action (summary in words) (mouse; listed as SEQ ID NO:9): higher angiogenic activity than the peptide having the amino acid sequence shown in SEQ ID NO: 1 |
| SVVYG (Oligopeptide having angiogenic activity) [Example 20] | M2 (M2 means 11 to 20) | – |
| SVV yGLR (SVV[dY]GLR) [Example 18] | M2 (M2 means 11 to 20) | – |
| GRGDSVVYGLR (Oligopeptide having angiogenic activity) [Example 16] | – | angiogenic activity / angiogenesis action (summary in words) (mouse): high angiogenic activities |
| AGP: heptapeptide (angiogenic peptide) having the amino acid sequence shown in SEQ ID NO: 1 (SVVYGLR; Oligopeptide having angiogenic activity) | M5 (M5 means 41 to 50) | angiogenic activity / angiogenesis action (summary in words) (mouse): strong (prominent) angiogenesis action; formation of capillary / spiral blood vessels in tissue contacting the microcell (observation) (mouse): a number of branched capillary blood vessels were formed; angiogenesis magnitude (mouse): M5 (M5 means 41 to 50); tube-like structure formation by endothelial cells [1, 2]: arranged in the tube-like structure; lengths of the tubes formed, compared with VEGF ([1]; TRLECs in collagen I layer, 10 μg/ml, 14 days): significantly longer |
| SVVYGL (Oligopeptide having angiogenic activity) [Example 13] | M5 (M5 means 41 to 50) | – |
| YGLR (Oligopeptide not having angiogenic activity) [compound 6] | M0 (M0 means that the number is 0) | – |
